This is an account of results in US12534454B2, “Crystal forms of 5-fluoro-1-(4-fluoro-3-(4-(pyrimidin-2-yl)piperazine-1-carbonyl)benzyl)quinazoline-2,4(1H,3H)-dione and preparation thereof” (IMPACT THERAPEUTICS (SHANGHAI), INC, priority 2020, dated 2026).

Entries after “also recorded” stand apart in the source; their conditions may differ.

Type in all cases: physicochemical
Series [1] is described as follows: Dynamic Vapor Sorption (DVS) hygroscopicity. As to conditions: for hygroscopicity classification: DVS; for hygroscopicity classification / mass increase (DVS): 25° C.; for change of crystal form after the DVS testing: after DVS cycle 0%-90%-0% RH; for mass increase (DVS): relative humidity from 0% to 80%. As for the experimental part: About 10 mg of sample was transferred to a DVS sample pan and the weight change as the humidity of the environment at 25° C. changes was recorded. The parameters of […] were set as follows: • Equilibrium dm/dt: 0.01%/min: (minimum: 10 min; maximum: 180 min); • Drying: 0% RH, 120 min; • RH (%) gradients: 10%; • RH (%) cycle: 0%-90%-0%. • Definition on Hygroscopicity

The nature of series [2]: Physical stability study of crystal forms (XRPD). As to conditions: 25° C./60% RH and 40° C./75% RH (long-term and accelerated), 2 weeks. On the procedure:
About 10 mg of Crystal Forms II, V and VI were added into 1.5 mL vial respectively which were then placed at the conditions of 25° C./60% RH and 40° C./75% RH. The solid in the vials was examined by XRPD at the corresponding time points.

Series [3] can be described thus: Water activity study (competition of crystal forms). As for the experimental part:
Crystal Form VIII was dissolved in solvents with different water activity shown in the table below and then filtered by a needle filter to prepare a saturated solution. After the filtrate was transferred into a 1.5 mL vial, 2 mg of Crystal Form I, II, VIII, X and XI were added respectively and the resulting suspensions were shaken for a while at the target temperatures. After centrifugation, the solid obtained was air dried at ambient temperature (DMSO system was washed by MTBE) and then examined by XRPD to identify changes among different crystal forms.

Series [4] is described as follows: Thermodynamic stability / solvent competition among crystal forms. To be noted: for thermodynamic status among anhydrate crystal forms: temperature below 50° C. As for the experimental part: After filtration by a needle filter, the filtrate was transferred to 1.5 mL vial. To the vial was added 5 mg of Crystal Form V and VI and the resulting suspensions were shaken for a while at the target temperatures. After centrifugation, the obtained solid was dried at 40° C. by vacuum overnight and then examined by XRPD to identify changes among different crystal forms.
With different solvents at corresponding temperatures shown in the table below, Crystal Form VIII was dissolved until saturated respectively. After filtration by a needle filter, the filtrate was transferred to 1.5 mL vial. To the vial was added 5 mg of Crystal Form III, V and IX and the resulting suspensions were shaken for a while at the target temperatures. After centrifugation, the obtained solid was dried at 40° C. by vacuum overnight and then examined by XRPD to identify changes among different crystal forms.

A short description of series [5]: Long-term stability study of crystal form VIII. As to conditions: for Water content / XRPD (crystal form): 25 ± 2° C./60 ± 5% RH. On the procedure: A long-term stability study has been carried out under condition of 25° C./60% RH for the crystal form VIII.
Series [6] can be described thus: Relative humidity X-ray powder diffraction (RH-XRPD) of Crystal Form VIII. On the procedure:
Based on the above data, Crystal Form VIII was most likely to be a hydrate. […] Therefore, Crystal Form VIII was further characterized by RH-XRPD to confirm the hydrate crystal Form and to have the knowledge of the crystal Form transformation with the different RH.
The parameters of XRPD used in the test were as follows: • Tube: Cu/K-Alpha (λ=1.54179Å); • Generator: Voltage: 40 KV; Current: 40 mA; • Scan Scope: 3-40 deg; • Scan Speed: 10 deg/min.
About 100 mg of compound was evenly distributed to form a layer in a sample holder and transferred to a RH control component in which the relative humidity was controlled and adjusted by the ratio of dry/wet N2 blown.

With `O=C(c1cc(Cn2c(=O)[nH]c(=O)c3c(F)cccc32)ccc1F)N1CCN(c2ncccn2)CC1` [Crystal Form II, 5-fluoro-1-(4-fluoro-3-(4-(pyrimidin-2-yl)piperazine-1-carbonyl)benzyl)quinazoline-2,4(1H,3H)-dione], the hygroscopicity classification result in series [1] is “hygroscopic”. Moreover, in series [2], the “crystal form change within two weeks” value was “no crystal form change; also recorded: not changed”. The “crystal form change in a low water activity” value in series [3] (Aw<0.3) is “changed to Crystal Form V”.
With `O=C(c1cc(Cn2c(=O)[nH]c(=O)c3c(F)cccc32)ccc1F)N1CCN(c2ncccn2)CC1` [Crystal Form III, 5-fluoro-1-(4-fluoro-3-(4-(pyrimidin-2-yl)piperazine-1-carbonyl)benzyl)quinazoline-2,4(1H,3H)-dione], the “thermodynamic status among anhydrate crystal forms” value in series [4] (anhydrous solvents) is on record as “metastable”.
Still for that read-out and setting: to `O=C(c1cc(Cn2c(=O)[nH]c(=O)c3c(F)cccc32)ccc1F)N1CCN(c2ncccn2)CC1` [Crystal Form IX, 5-fluoro-1-(4-fluoro-3-(4-(pyrimidin-2-yl)piperazine-1-carbonyl)benzyl)quinazoline-2,4(1H,3H)-dione] belongs “metastable”.
Regarding `O=C(c1cc(Cn2c(=O)[nH]c(=O)c3c(F)cccc32)ccc1F)N1CCN(c2ncccn2)CC1` [Crystal Form V, 5-fluoro-1-(4-fluoro-3-(4-(pyrimidin-2-yl)piperazine-1-carbonyl)benzyl)quinazoline-2,4(1H,3H)-dione], in series [1], the hygroscopicity classification entry is given as “slight hygroscopic”, the “change of crystal form after the DVS testing” value was “no significant change” and the “mass increase (DVS)” value is given as “about 0.8%”. The “relative stability in the anhydrous solvents” value in series [4] (anhydrous solvents, 25° C., 50° C. and 80° C.) is “more stable than Crystal Form VI”. The “thermodynamic status among anhydrate crystal forms” value in series [4] (anhydrous solvents) is reported as “dominant”. Also, the “crystal form change in the hydrous solvents” value in series [4] is recorded as “changed to Crystal Form II”. Also, the “crystal form change within two weeks” value in series [2] is reported as “no crystal form change; also recorded: not changed”. Moreover, the “crystal form change in a high water activity” value in series [3] (Aw>0.3) is listed as “changed to Crystal Form II”.
With `O=C(c1cc(Cn2c(=O)[nH]c(=O)c3c(F)cccc32)ccc1F)N1CCN(c2ncccn2)CC1` [Crystal Form VI, 5-fluoro-1-(4-fluoro-3-(4-(pyrimidin-2-yl)piperazine-1-carbonyl)benzyl)quinazoline-2,4(1H,3H)-dione], in series [1], the hygroscopicity classification result was “slight hygroscopic”, the “change of crystal form after the DVS testing” value was “no significant change” and the “mass increase (DVS)” value is reported as “about 0.5%”. Moreover, the “thermodynamic status among anhydrate crystal forms” value in series [4] (anhydrous solvents) is “metastable”. In addition, the “crystal form change in the hydrous solvents” value in series [4] is given as “changed to Crystal Form II”. Further, in series [2], the “crystal form change within two weeks” value was “not changed”.
On to `O.O.O=C(c1cc(Cn2c(=O)[nH]c(=O)c3c(F)cccc32)ccc1F)N1CCN(c2ncccn2)CC1` [Crystal Form VIII, 5-fluoro-1-(4-fluoro-3-(4-(pyrimidin-2-yl)piperazine-1-carbonyl)benzyl)quinazoline-2,4(1H,3H)-dione dihydrate], for which the “change of water content in long-term stability” value in series [5] (25° C./60% RH, up to 24 months) is “no significant change”. The “crystal form change in long-term stability” value in series [5] (25° C./60% RH, up to 24 months) was “no crystal form change”. In series [5] (25° C./60% RH, up to 24 months), the “long-term stability (in words)” value is “stable”. Further, the Water content in series [5] (9 months) came to 7.8%; in series [5] (12 months), 7.7%; in series [5] (18 months), 7.6%; in series [5] (24 months) it was 7.4%; in series [5] (Initial), 7.7%. The “XRPD (crystal form)” value in series [5] (12 months), in series [5] (24 months) and in series [5] (Initial) was “Form VIII” each time. Moreover, the “hygroscopicity (in words)” value in series [1] is listed as “high hygroscopicity”. Moreover, the “Crystal Form (RH-XRPD), absorption process” value in series [6] (0% RH, equilibrium 2 hour) is reported as “XII”; in series [6] (10% RH, equilibrium 2 hour), “XII”; in series [6] (20% RH, equilibrium 2 hour), “XII”; in series [6] (30% RH, equilibrium 2 hour), ““VIII””; in series [6] (40% RH, equilibrium 2 hour), “VIII”; in series [6] (50% RH, equilibrium 2 hour), “VIII”. The “Crystal Form (RH-XRPD), absorption process” value in series [6] (60% RH, equilibrium 0.5 hour) is reported as “VIII”; in series [6] (70% RH, equilibrium 0.5 hour), “VIII”; in series [6] (80% RH, equilibrium 0.5 hour), “VIII”; in series [6] (90% RH, equilibrium 0.5 hour) it was “VIII”. Also, the “Crystal Form (RH-XRPD), desorption process” value is listed as “XII” in series [6] (0% RH, equilibrium 2 hour); “XII” in series [6] (10% RH, equilibrium 2 hour); “XII” in series [6] (20% RH, equilibrium 2 hour); “VIII” in series [6] (30% RH, equilibrium 2 hour); “VIII” in series [6] (40% RH, equilibrium 2 hour); “VIII” in series [6] (50% RH, equilibrium 2 hour). Also, the “Crystal Form (RH-XRPD), desorption process” value is recorded as “VIII” in series [6] (60% RH, equilibrium 0.5 hour); “VIII” in series [6] (70% RH, equilibrium 0.5 hour); “VIII” in series [6] (80% RH, equilibrium 0.5 hour); “VIII” in series [6] (90% RH, equilibrium 0.5 hour). Also, the “relative humidity at which the crystal form is stable” value in series [6] (RH-XRPD and DVS, below it water is lost and the crystal form changes) is reported as “no less than 40 % RH”.
With `O=C(c1cc(Cn2c(=O)[nH]c(=O)c3c(F)cccc32)ccc1F)N1CCN(c2ncccn2)CC1` [Crystal Form “VIII”, 5-fluoro-1-(4-fluoro-3-(4-(pyrimidin-2-yl)piperazine-1-carbonyl)benzyl)quinazoline-2,4(1H,3H)-dione], the “crystal form after moisture absorption” value in series [6] (5° C./75% RH, ambient temperature/75% RH, or 40° C./75% RH) is “return to Crystal Form VIII”.
